Measured values taken from ChEMBL document CHEMBL2203081 (Bioorg Med Chem Lett, 2012).
Calls of active or inactive are those of the source.

Tests used:
[1] = target: Leucine-rich repeat serine/threonine-protein kinase 2 (Homo sapiens) (UniProt Q5S007); settings: 0.03 to 3 uM
Description: Inhibition of LRRK2 in human lymphoblastoid cells assessed as inhibition of Ser935 autophosphorylation at 0.03 to 3 uM after 90 mins by immunoblot method

[2] = target: Leucine-rich repeat serine/threonine-protein kinase 2 (Homo sapiens) (UniProt Q5S007); settings: 0.03 to 3 uM; remark: listed apart in the source
Description: Inhibition of LRRK2 in human lymphoblastoid cells assessed as inhibition of Ser910 autophosphorylation at 0.03 to 3 uM after 90 mins by immunoblot method

[3] = target: Leucine-rich repeat serine/threonine-protein kinase 2 (Homo sapiens) (UniProt Q5S007); settings: HEK293, 0.03 to 3 uM
Description: Inhibition of GFP-tagged LRRK2 expressed in HEK293 cells assessed as inhibition of Ser910 autophosphorylation at 0.03 to 3 uM after 90 mins by immunoblotting method

[4] = target: Leucine-rich repeat serine/threonine-protein kinase 2 (Homo sapiens) (UniProt Q5S007); settings: HEK293, 0.03 to 3 uM; remark: listed apart in the source
Description: Inhibition of GFP-tagged LRRK2 expressed in HEK293 cells assessed as inhibition of Ser935 autophosphorylation at 0.03 to 3 uM after 90 mins by immunoblotting method

Measured: inhibition

Sequence of Leucine-rich repeat serine/threonine-protein kinase 2 (Homo sapiens) (Q5S007 whole entry): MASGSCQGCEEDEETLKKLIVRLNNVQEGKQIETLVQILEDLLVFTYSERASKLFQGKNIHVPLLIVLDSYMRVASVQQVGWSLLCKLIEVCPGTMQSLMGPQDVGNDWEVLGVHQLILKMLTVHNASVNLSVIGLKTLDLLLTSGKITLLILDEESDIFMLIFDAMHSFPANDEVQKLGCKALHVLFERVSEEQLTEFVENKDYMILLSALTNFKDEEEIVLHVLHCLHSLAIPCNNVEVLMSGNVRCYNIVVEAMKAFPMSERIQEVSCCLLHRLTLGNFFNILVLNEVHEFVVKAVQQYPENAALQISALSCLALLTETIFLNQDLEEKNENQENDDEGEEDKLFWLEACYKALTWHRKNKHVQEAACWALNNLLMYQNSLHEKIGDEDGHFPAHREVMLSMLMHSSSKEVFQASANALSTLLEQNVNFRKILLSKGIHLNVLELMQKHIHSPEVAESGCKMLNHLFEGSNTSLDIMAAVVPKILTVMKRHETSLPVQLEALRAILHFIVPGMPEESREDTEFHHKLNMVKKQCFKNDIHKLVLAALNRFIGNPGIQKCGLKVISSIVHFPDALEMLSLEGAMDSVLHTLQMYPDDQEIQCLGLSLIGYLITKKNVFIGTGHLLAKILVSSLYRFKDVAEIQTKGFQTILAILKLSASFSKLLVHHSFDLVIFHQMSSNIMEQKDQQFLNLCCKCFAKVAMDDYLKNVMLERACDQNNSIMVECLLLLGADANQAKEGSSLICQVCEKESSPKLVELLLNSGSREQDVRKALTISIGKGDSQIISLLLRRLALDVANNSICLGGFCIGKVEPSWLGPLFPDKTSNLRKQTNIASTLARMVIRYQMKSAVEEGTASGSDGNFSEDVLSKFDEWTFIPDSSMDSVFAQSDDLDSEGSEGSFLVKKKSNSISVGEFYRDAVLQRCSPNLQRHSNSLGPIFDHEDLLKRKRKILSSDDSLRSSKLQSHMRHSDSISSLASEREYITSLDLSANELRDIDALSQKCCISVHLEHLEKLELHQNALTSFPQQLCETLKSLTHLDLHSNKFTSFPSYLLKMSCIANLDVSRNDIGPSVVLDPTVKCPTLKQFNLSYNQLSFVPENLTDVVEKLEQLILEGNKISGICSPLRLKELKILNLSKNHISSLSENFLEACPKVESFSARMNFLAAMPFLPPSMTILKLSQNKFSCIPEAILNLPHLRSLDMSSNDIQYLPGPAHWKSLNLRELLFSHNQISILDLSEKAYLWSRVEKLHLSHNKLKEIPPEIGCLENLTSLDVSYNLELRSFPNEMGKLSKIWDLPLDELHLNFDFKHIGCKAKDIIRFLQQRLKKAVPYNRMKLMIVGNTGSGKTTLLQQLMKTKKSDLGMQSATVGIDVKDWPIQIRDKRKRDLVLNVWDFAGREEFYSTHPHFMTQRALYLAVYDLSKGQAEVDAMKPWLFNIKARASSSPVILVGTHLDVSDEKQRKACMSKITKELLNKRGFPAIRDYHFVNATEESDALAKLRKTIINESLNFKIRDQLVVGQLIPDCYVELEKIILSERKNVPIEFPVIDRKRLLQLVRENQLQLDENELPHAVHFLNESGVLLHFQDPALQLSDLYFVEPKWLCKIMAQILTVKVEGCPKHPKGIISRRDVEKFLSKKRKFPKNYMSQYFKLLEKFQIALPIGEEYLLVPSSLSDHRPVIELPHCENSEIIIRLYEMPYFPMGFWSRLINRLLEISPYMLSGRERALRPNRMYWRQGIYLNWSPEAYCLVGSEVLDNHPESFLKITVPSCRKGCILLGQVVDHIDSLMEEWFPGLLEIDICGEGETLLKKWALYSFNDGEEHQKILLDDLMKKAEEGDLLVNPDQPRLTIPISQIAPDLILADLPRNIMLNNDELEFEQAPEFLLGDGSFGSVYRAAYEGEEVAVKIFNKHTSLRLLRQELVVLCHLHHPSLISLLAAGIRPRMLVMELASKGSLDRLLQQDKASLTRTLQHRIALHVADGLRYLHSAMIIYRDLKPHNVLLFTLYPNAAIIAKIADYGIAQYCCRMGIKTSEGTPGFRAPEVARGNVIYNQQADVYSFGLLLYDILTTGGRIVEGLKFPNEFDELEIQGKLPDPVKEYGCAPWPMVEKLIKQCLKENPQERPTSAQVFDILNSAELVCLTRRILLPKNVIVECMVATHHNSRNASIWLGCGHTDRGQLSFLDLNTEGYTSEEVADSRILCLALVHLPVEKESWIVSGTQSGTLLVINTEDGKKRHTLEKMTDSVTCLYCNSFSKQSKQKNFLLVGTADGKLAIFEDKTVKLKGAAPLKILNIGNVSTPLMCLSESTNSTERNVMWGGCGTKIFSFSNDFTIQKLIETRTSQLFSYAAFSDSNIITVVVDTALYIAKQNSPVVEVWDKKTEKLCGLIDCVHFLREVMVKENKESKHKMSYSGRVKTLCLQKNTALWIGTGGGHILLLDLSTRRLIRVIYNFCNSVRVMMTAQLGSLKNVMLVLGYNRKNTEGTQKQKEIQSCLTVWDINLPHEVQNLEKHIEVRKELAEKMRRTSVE

COc1cc(C(=O)N2CCC(N3CCN(C)CC3)CC2)ccc1Nc1ncc2c(n1)N(C)c1ccccc1C(=O)N2C
active: [1] | [2] | [3] | [4]
